One block for each compound: values may come before it.
Assays:
[1] = target: human STING (Homo sapiens, UniProt Q86WV6); assay: Fluorescence Thermal Shift assay; format: binding; settings: 50 μM compound; STING 0.1 mg/ml; 20 minutes preincubation; read-out: [hSTING] FTS, ΔTm [° C.] for 50 μM
Method: Fluorescence Thermal Shift Assay Compounds of the present invention were tested for binding to human STING in Fluorescence Thermal Shift assay. STING was preincubated with the compounds for 20 minutes in 50 mM Hepes, 150 mM NaCl, pH 7.5 in 16 μl volume, following by adding 4 μl of SyproOrange dye dilution (ThermoFisher, cat no. S-6651). Final STING concentration was 0.1 mg/ml. Thermal unfolding was performed in Real-Time PCR QuantStudio 6 Flex System (Applied Biosystems), from 25 to 99° C., with continuous ramp mode and ramp rate 0.033° C./s. The data were analyzed using Protein Thermal Shift Software (ThermoFisher). […] For example, ΔTm [° C.] of FTS assay for following examples are: […]

[2] = test system: NF-κB pathway in THP-1 dual cells; assay: THP-1 Dual Reporter Assay, NF-κB pathway (SEAP reporter); format: cell-based; settings: Homo sapiens, THP1-Dual, 18 h of stimulation, absorbance at 630 nm, read-out: THP1 Dual EC50 (μM) NFkB
Method: (§1) THP-1 Dual Reporter Assay
(§2) Compounds of the present invention were tested for their activity using THP-1 dual cells (Invivogen, cat no. thpd-nfis) allowing for simultaneous study of NF-κB pathway and the interferon regulatory factor (IRF) pathway. THP-1 dual cells contain luciferase reporter gene under the control of an ISG54 (interferon-stimulated gene) minimal promoter in conjunction with five interferon-stimulated response elements and a secreted embryonic alkaline phosphatase reporter gene under the control an IFN (interferon)-β minimal promoter fused to five copies of the NF-κB consensus transcriptional response element with three copies of the c-Rel binding site. Following 18 h of stimulation with STING agonist, medium was collected and transferred onto fresh cell culture plate. To verify activity of the IRF pathway, luminescence activity was measured with standard laboratory plate reader immediately after addition 10 μl of the medium to 50 μl of luminescence reagent (Invivogen, cat. No. rep-qlc2). To verify activity of NF-κB pathway, 20 μl of the medium was mixed with 80 μl of a detection medium (Invivogen, cat. No. rep-qb2) and incubated for 2 hours at 37° C. in a humidified atmosphere containing 5% CO2. Next, absorbance at 630 nm was recorded using standard laboratory plate reader.

[3] = test system: interferon regulatory factor (IRF) pathway in THP-1 dual cells; assay: THP-1 Dual Reporter Assay, IRF pathway (luciferase reporter); format: cell-based; settings: Homo sapiens, THP1-Dual, 18 h of stimulation, luminescence
Method: as §1, §2

Chain of human STING (Q86WV6 whole entry H232R): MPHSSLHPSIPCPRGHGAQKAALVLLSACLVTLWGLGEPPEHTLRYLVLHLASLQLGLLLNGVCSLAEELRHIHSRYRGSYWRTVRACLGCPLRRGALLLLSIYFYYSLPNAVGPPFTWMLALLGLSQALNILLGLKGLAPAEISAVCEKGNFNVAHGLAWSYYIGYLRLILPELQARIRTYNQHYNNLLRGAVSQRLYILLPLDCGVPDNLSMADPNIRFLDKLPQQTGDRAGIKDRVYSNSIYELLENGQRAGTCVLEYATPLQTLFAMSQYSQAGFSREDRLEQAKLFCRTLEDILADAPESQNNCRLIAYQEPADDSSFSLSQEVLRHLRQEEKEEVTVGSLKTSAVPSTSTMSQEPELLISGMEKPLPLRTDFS

Structure (SMILES): Cc1ccc2c(=O)c(CN(CCCn3ccnc3)Cc3ccncc3)coc2c1C [Example 5, 3-({[3-(1H-imidazol-1-yl)propyl](pyridin-4-ylmethyl)amino}methyl)-7,8-dimethyl-4H-chromen-4-one]
ΔTm at 50 µM [1]: > 2.5 °C | EC50 [2]: ≤ 10 µM | EC50 [3]: ≤ 10 µM

Structure (SMILES): N#Cc1ccc2c(=O)c(CN(CCCn3ccnc3)Cc3ccncc3)coc2c1 [Example 24, 3-({[3-(1H-imidazol-1-yl)propyl][(pyridin-4-yl)methyl]amino}methyl)-4-oxo-4H-chromene-7-carbonitrile]
EC50 [2]: ≥ 20 µM | EC50 [3]: ≥ 20 µM

Structure (SMILES): O=c1c(CN(CCCn2ccnc2)Cc2ccncc2)cnc2ccccn12 [Example 35, 3-({[3-(1H-imidazol-1-yl)propyl][(pyridin-4-yl)methyl]amino}methyl)-4H-pyrido[1,2-a]pyrimidin-4-one]
EC50 [2]: ≥ 20 µM | EC50 [3]: ≥ 20 µM

Structure (SMILES): COc1cc(CN(CCCn2cnc3ccccc32)Cc2cnc3ccccn3c2=O)ccn1 [Example 86, 3-({[3-(1H-1,3-benzodiazol-1-yl)propyl][(2-methoxypyridin-4-yl)methyl]amino}methyl)-4H-pyrido[1,2-a]pyrimidin-4-one]
EC50 [2]: ≥ 20 µM | EC50 [3]: ≥ 20 µM

Structure (SMILES): COc1cc(CN(CCCn2cnc3ccccc32)Cc2c(C)oc3c(ccc4ccccc43)c2=O)ccn1 [Example 87, 3-({[3-(1H-1,3-benzodiazol-1-yl)propyl][(2-methoxypyridin-4-yl)methyl]amino}methyl)-2-methyl-4H-benzo[h]chromen-4-one]
EC50 [2]: ≥ 20 µM | EC50 [3]: ≥ 20 µM

Structure (SMILES): COc1cc(CN(CCCc2cncc3[nH]ncc23)Cc2c(C)oc3cc(Br)c(F)cc3c2=O)ccn1 [Example 92, 7-bromo-6-fluoro-3-({[(2-methoxypyridin-4-yl)methyl](3-{1H-pyrazolo[3,4-c]pyridin-4-yl}propyl)amino}methyl)-2-methyl-4H-chromen-4-one]
EC50 [2]: ≥ 20 µM | EC50 [3]: ≥ 20 µM

More lines, now with the values ahead:

ΔTm at 50 µM [1]: < 2.5 °C | EC50 [2]: ≥ 20 µM | EC50 [3]: 10 to 20 µM
Structure (SMILES): O=c1c(CN(CCCCn2ccnc2)Cc2ccncc2)coc2ccccc12 [Example 1, 3-({[4-(1H-imidazol-1-yl)butyl](pyridin-4-ylmethyl)amino}methyl)-4H-chromen-4-one]

ΔTm at 50 µM [1]: < 2.5 °C | EC50 [2]: ≥ 20 µM | EC50 [3]: 10 to 20 µM
Structure (SMILES): O=c1c(CN(CCCn2cccc2)Cc2ccncc2)coc2ccccc12 [Example 2, 3-({[(pyridin-4-yl)methyl][3-(1H-pyrrol-1-yl)propyl]amino}methyl)-4H-chromen-4-one]

ΔTm at 50 µM [1]: < 2.5 °C | EC50 [2]: ≥ 20 µM | EC50 [3]: ≥ 20 µM
Structure (SMILES): O=c1c(CN(CCCn2cccn2)Cc2ccncc2)coc2ccccc12 [Example 3, 3-({[3-(1H-pyrazol-1-yl)propyl](pyridin-4-ylmethyl)amino}methyl)-4H-chromen-4-one]

ΔTm at 50 µM [1]: < 2.5 °C | EC50 [2]: ≥ 20 µM | EC50 [3]: ≥ 20 µM
Structure (SMILES): O=c1c(CN(CCCn2ccnn2)Cc2ccncc2)coc2ccccc12 [Example 4, 3-{[(pyridin-4-ylmethyl)[3-(1H-1,2,3-triazol-1-yl)propyl]amino]methyl}-4H-chromen-4-one]

ΔTm at 50 µM [1]: < 2.5 °C | EC50 [2]: ≥ 20 µM | EC50 [3]: ≥ 20 µM
Structure (SMILES): O=c1c(CN(CCCc2ccccn2)Cc2ccncc2)coc2ccccc12 [Example 6, 3-({[3-(pyridin-2-yl)propyl][(pyridin-4-yl)methyl]amino}methyl)-4H-chromen-4-one]

ΔTm at 50 µM [1]: > 2.5 °C | EC50 [2]: ≤ 10 µM | EC50 [3]: ≤ 10 µM
Structure (SMILES): O=c1c(CN(CCCn2ccnc2)Cc2ccncc2)coc2c1ccc1ccccc12 [Example 7, 3-({[3-(1H-imidazol-1-yl)propyl](pyridin-4-ylmethyl)amino}methyl)-4H benzo[h]chromen-4-one]

ΔTm at 50 µM [1]: < 2.5 °C | EC50 [2]: ≥ 20 µM | EC50 [3]: ≥ 20 µM
Structure (SMILES): O=C1CCCN1CCCN(Cc1ccncc1)Cc1coc2ccccc2c1=O [Example 8, 1-(3-{[(4-oxo-4H-chromen-3-yl)methyl](pyridin-4-ylmethyl)amino}propyl)pyrrolidin-2-one]

Reference: patent US12162863B2, “Modulators of stimulator of interferon genes (STING)” (RYVU THERAPEUTICS S.A., priority 2018, dated 2024)
